In patent US20100324058A1 (Obschestvo S Organichennoi Otvetsttvennoctiyou "Bionika", priority 2007, published 2010):

Legend:
[1] = cited from earlier work
experimental animals = conditions: lethal dose of argothroban after clinical testing; cited from earlier work
thrombin [2] = molecular target: T1, thrombin (Homo sapiens, UniProt P00734); conditions: literature, PDB complex; cited from earlier work
thrombin [3] = molecular target: T1, thrombin; experiment: Effect of test compounds on thrombin activity: hydrolysis rate of chromogenic (Chromozim TH) or fluorogenic (BOC-Ala-Pro-Arg-AMC) substrate; assay type: biochemical; conditions: for inhibition at 0.005 µM: concentration of compound 5 nM; for inhibition at 0.01 µM: concentration of compound 10 nM; for inhibition at 0.02 µM: concentration of compound 20 nM; for inhibition at 0.05 µM: concentration of compound 50 nM; for inhibition at 0.1 µM: concentration of compound 100 nM; for inhibition at 0.0025 µM: concentration of compound 2.5 nM; for inhibition at 0.025 µM: concentration of compound 25 nM
Description: The effect of the synthesized substances on thrombin activity was studied by measuring the hydrolysis rate of specific low molecular weight substrates with thrombin in an aqueous buffering solution in the absence and presence of these compounds. One of these substrates was chromogenic substrate Chromozim TH (CTH): N-(p-Tosyl)-Gly-Pro-Arg-pNA [Sonder S A, Fenton J W 2nd. Thrombin Specificity with Tripeptide Chromogenic Substrates: Comparison of Human and Bovine Thrombins with and without Fibrinogen Clotting Activities. Clin. Chem., 1986, 32(6):934-937]. Another substrate that was used in a number of experiments was fluorogenic substrate BOC-Ala-Pro-Arg-AMC (S), wherein BOC is butoxycarbonyl residue, and AMC is 7-amino-4-methylcoumaryl [Kawabata S, Miura T, Morita T, Kato H, Fujikawa K, Ivanaga S, Takada K, Kimura T, Sakakibara S. Highly Sensitive peptide-4-methylcoumaryl-7-amide Substrates for Blood-Clotting Proteases and Trypsin. Eur. J. Biochem., 1988, 172(1):17-25].
The holes of a common 96-hole board were filled with a buffer containing 140 mM of NaCl, 20 mM of HEPES, and 0.1% polyethylene glycol (Mw=6,000), at pH=8.0. […] When a chromogenic substrate was used, accumulation of the colored reaction product—para-nitroaniline—was followed on a spectrophotometric Molecular Devices board reader (Thermomax, U.S.), measuring the increase in optical density on the 405 nm wavelength. […] The reaction kinetics was registered on a fluorometric Titertek Fluoroskan board reader (LabSystem, Finland).
The initial reaction rate was measured as the tangent of the kinetic curve inclination angle on a straight section (first 10 to 15 minutes of registration). Reaction rate without an inhibitor was a ssumed to be 100%. The mean arithmetic value of two independent measurements was used as the end result.

[4] = concentration of compound 5 mcM
[5] = concentration of compound 2.5 mcM
[6] = concentration of compound 25 mcM
[7] = concentration of compound 100 mcM
[8] = concentration of compound 250 mcM
[9] = concentration of compound 500 mcM

For `CC1CNc2c(cccc2S(=O)(=O)N[C@@H](CCCNC(=N)N)C(=O)N2CC[C@@H](C)C[C@@H]2C(=O)O)C1` (some centres unmarked) [Argatroban], the T1/2 in plasma [1] is given as 36 min and the LD50 (experimental animals) is given as 475 mg/kg.

For `N=c1ccc2cc3ccc(N)cc3[nH]c-2c1` [Proflavin], the Kd (thrombin [2]) is listed as roughly 10 µM.

In the case of `Cc1cc(OCCCSC(=N)N)cc(OS(=O)(=O)c2ccccc2F)c1.I` [HC_031s_IOC], the inhibition at 0.005 µM (thrombin [3]) is reported as 35%, the inhibition at 0.01 µM (thrombin [3]) is reported as 43% and the inhibition at 0.02 µM (thrombin [3]) is reported as 49%. For the same compound, the inhibition at 0.05 µM (thrombin [3]) was 59%, the inhibition at 0.1 µM (thrombin [3]) was 73% and the “Hydrolysis rate inhibition, %” value (thrombin [3]; concentration of compound 2 mcM) was 99%. For the same compound, the “Hydrolysis rate inhibition, %” value (thrombin [3]; [4]) was 100%.

In the case of `C/N=C(/N)SCCOc1cc(C)cc(OS(=O)(=O)c2ccccc2Cl)c1.I` [HC_033s_IOC], the inhibition at 0.004 µM (thrombin [3]; concentration of compound 4 nM) is reported as 18%, the inhibition at 0.01 µM (thrombin [3]) is reported as 23% and the inhibition at 0.02 µM (thrombin [3]) is reported as 24%. It also gave an inhibition at 0.04 µM (thrombin [3]; concentration of compound 40 nM) of 62%, an inhibition at 0.1 µM (thrombin [3]) of 59% and an inhibition at 0.2 µM (thrombin [3]; concentration of compound 200 nM) of 74%. For the same compound, the “Hydrolysis rate inhibition, %” value (thrombin [3]; concentration of compound 4 mcM) was 100%.

For `Cc1cc(OCC[n+]2ccc(N)cc2)cc(OS(=O)(=O)c2ccccc2F)c1` [HC_037s_IOC], the inhibition at 0.0025 µM (thrombin [3]) was 43%, the inhibition at 0.005 µM (thrombin [3]) was 59% and the inhibition at 0.025 µM (thrombin [3]) was 82%. The inhibition at 0.05 µM (thrombin [3]) was 86% and the “Hydrolysis rate inhibition, %” value (thrombin [3]; [5]) was 89%.

For `CN(C)c1cc[n+](CCc2nc3cc(S(=O)(=O)N(C)c4ccccc4)ccc3n2C)cc1.[Cl-]` [HC-021s-IOC], the “Hydrolysis rate inhibition, %” value (thrombin [3]; [6]) was 5%, the “Hydrolysis rate inhibition, %” value (thrombin [3]; [7]) was 8% and the “Hydrolysis rate inhibition, %” value (thrombin [3]; [8]) was 4%. The “Hydrolysis rate inhibition, %” value (thrombin [3]; [9]) was 4%.

Work on `Cc1cc(OCCSC(=N)N)cc(OS(=O)(=O)c2ccccc2S(C)(=O)=O)c1` [HC_040s_IOC] yielded an inhibition at 0.0025 µM (thrombin [3]) of 4%, an inhibition at 0.005 µM (thrombin [3]) of 19% and an inhibition at 0.025 µM (thrombin [3]) of 66%. For the same compound, the inhibition at 0.05 µM (thrombin [3]) was 75% and the “Hydrolysis rate inhibition, %” value (thrombin [3]; [5]) was 100%.

In the case of `CN(c1ccccc1)S(=O)(=O)c1ccc2c(c1)nc(CC[n+]1ccc(N)cc1)n2C.[Cl-]` [HC_027s_IOC], the “Hydrolysis rate inhibition, %” value (thrombin [3]; concentration of compound 0.25 mcM) is reported as 11%, the “Hydrolysis rate inhibition, %” value (thrombin [3]; concentration of compound 0.5 mcM) is reported as 6% and the “Hydrolysis rate inhibition, %” value (thrombin [3]; [5]) is reported as 24%. For the same compound, the “Hydrolysis rate inhibition, %” value (thrombin [3]; [4]) was 24%, the “Hydrolysis rate inhibition, %” value (thrombin [3]; concentration of compound 10 mcM) was 59% and the “Hydrolysis rate inhibition, %” value (thrombin [3]; [6]) was 72%. For the same compound, the “Hydrolysis rate inhibition, %” value (thrombin [3]; concentration of compound 50 mcM) was 88%, the “Hydrolysis rate inhibition, %” value (thrombin [3]; [7]) was 100% and the “Hydrolysis rate inhibition, %” value (thrombin [3]; [8]) was 100%. For the same compound, the “Hydrolysis rate inhibition, %” value (thrombin [3]; [9]) was 100%.
